The source of these data is patent publication US10449230B2, “Polymyxin derived cell penetrating scaffolds” (The Regents of the University of California, priority 2016, dated 2019).

Numbered stars: 1 amine (or outer) side, 2 acyl side, 3 side chain; on linkers, the order of the positions; unused ones are H or OH. Bridge positions count the residues as written; N and C are the ends. Square brackets hold non-standard residues; d marks the D form. Peptide text beside a SMILES is read from it. * marks the point of attachment. Biotin = O=C1N[C@H]2[C@H](CS[C@H]2CCCCC(=O)*)N1; X1 = O=C(CCCc1cn(CCOCCOCCOCCN[*:1])nn1)[*:2]; Agb = N=C(N)NCC[C@H](N)C(=O)O; Dab = NCC[C@H](N)C(=O)O

The test system of data set [1] is CHO-K1 cells. The note with it: CHO-K1, 72 h, concentrations as high as 0.5 μM, FIG. 3A.
Method: (§1) Cell titer blue was added and incubated an additional 4 hours. Cell viability was calculated by measuring the fluorescence intensity at 560/590.
For another data set, the system named is HEK-293 cells. The note with it: HEK-293, 72 h, concentrations as high as 0.5 μM, FIG. 3B.
The subject of data set [2] is CHO-K1 cells. The data set can be described thus: Cellular uptake of transporter-ST-PE-Cy5 conjugates, flow cytometry (MFI). The class given is cell-based, Chinese hamster. The note with it: for Uptake of ST-PE-Cy5 incubated with transporter lacking the biotin moiety: CHO-K1, 37° C., 1 h, FIG. 4. As for the experimental part:
The polymyxin derivatives (2.5 μM in PBS) were incubated with ST-PE-Cy5 (0.5 μM in PBS) for 20 min at ambient temperature then diluted with F-12 cell culture medium to give final conjugate solutions.
Cells were plated onto 24-well plates (100 000 cells/well) and grown for 24 h to about 80% confluence. Cells were washed with PBS and incubated with 300 μL of the corresponding conjugate for 1 h at 37° C. under an atmosphere of 5% CO2. Cells were washed twice with PBS, detached with 50 μL of trypsin-EDTA for uptake studies or 100 μL Versene (EDTA) for binding studies, diluted with PBS containing 0.1% BSA, and analyzed by FACS. Cellular uptake was quantified by the mean fluorescence intensity; raw data was interpreted by using FlowJo v8.8.6.
Wild type CHO-K1 cells were incubated with the carrier-ST-PE-Cy5 conjugate for 1 h at 37° C., detached with trypsin/EDTA, and analyzed by flow cytometry (see, e.g., H. O'Dowd, B. Kim, P. Margolis, W. Wang, C. Wu, S. L. Lopez and J. Blais, Tetrahedron Lett., 2007, 48, 2003-2005). […] Cellular uptake of GPMB and PMB conjugated to ST-PE-Cy5 was measured in CHO-K1, HEK-293, and HEP-3B cells. The cells were incubated with conjugate (5 nM) at 37° C. for 1 h. Mean fluorescence intensity was measured by flow cytometry. The background signal from untreated cells was subtracted (FIG. 2).
The mixtures were then added to CHO-K1 cells and incubated at 37° C. for 1 h. Mean fluorescence intensity was measured by flow cytometry and the background signal from untreated cells was subtracted.

Data set [3] has as its system CHO-K1 cells. The data set can be described thus: Cytoplasmic delivery of streptavidin-saporin, CellTiter-Blue viability. The class given is cell-based, Chinese hamster. The note with it: CHO-K1, four days at 37° C., FIG. 8. As for the experimental part:
The biotinylated transporters were incubated with ST-Sap in a 5:1 molar ratio for 20 min at ambient temperature then diluted with F-12 cell culture medium to give final conjugate solutions. CHO-K1 and pgsA cells were incubated with 100 μL of the corresponding conjugate for 4 days at 37° C. under an atmosphere of 5% CO2. CellTiter-Blue (20 μL) was added to the medium and incubated for an additional 4 h to measure viability.
The ability of bPMB and bGPMB to deliver cargo to the cytosol was evaluated by conjugating the transporter to streptavidin-saporin (ST-SAP) and incubating the conjugate with CHO-K1 or pgsA cells at various concentrations. CHO-K1 cells were incubated with transporter-streptavidin-saporin conjugates at 37° C.
Saporin (no streptavidin) was incubated with bPMB or bGPMB for 20 min then diluted to final saporin concentrations and added to CHO-K1 cells. After four days, the number of viable cells was determined using CellTiter-Blue assay and the fluorescence intensity at was measured at 560/590 (FIG. 9A). pgsA cells were incubated with transporter-streptavidin-saporin conjugates at 37° C. After four days, the number of viable cells was determined using CellTiter-Blue and fluorescence intensity was measured at 560/590 (FIG. 9B).

Data set [4] concerns CHO-K1 cells. The note with it: liposomes with 10 mol % carrier, 0.30, 0.50 or 0.70 μg/mL, 1 h at 37° C., FIG. 10.
Method: A mixture (30 mg total) of DOPC, DOPE, and cholesterol (73:11:16) was dissolved in chloroform to a final volume of 1 mL and evaporated in a round flask and further dried under high vacuum overnight to form a thin lipid layer. The resulting film was hydrated for 15 min at 37° C. with 1 mL of PBS containing 100 μM Cy5. The mixture was sonicated for 30 s, subjected to six freeze/thaw cycles using a dry ice/acetone bath and a water bath at 37° C. Lastly, the suspension was extruded 17 times through a polycarbonate membrane (pore size 100 nm) at room temperature. Non-encapsulated dye was removed by gravitational gel filtration (Sephadex G-50). Lipid concentration was determined adapting the Stewart method. […] Unincorporated PMB or GPMB was removed via centrifuge gel filtration (Sephadex G-50) (see, e.g., D. W. Fry, J. C. White and I. D. Goldman, Anal. Biochem., 1978, 90, 809-815).
To examine the significance of the cyclic peptide as a delivery module, rather than the lipophilic tail, and the versatility of PMB and GPMB as transporters, liposomes containing the fluorescent Cy5 dye were mixed with 10 mol % PMB or GPMB. Uptake was evaluated using flow cytometry and the size and zeta potential of the liposomes were measured using dynamic light scattering (DLS) and are shown in Table 1 below. […]

Method for HEK-293 cells: as §1

On to `CC(C)C[C@@H]1NC(=O)[C@@H](Cc2ccccc2)NC(=O)[C@H](CCNC(=N)N)NC(=O)[C@@H](NC(=O)[C@H](CCNC(=N)N)NC(=O)[C@@H](NC(=O)[C@H](CCNC(=N)N)NC(=O)CCCc2cn(CCOCCOCCOCCNC(=O)CCCC[C@@H]3SC[C@@H]4NC(=O)N[C@@H]43)nn2)[C@@H](C)O)CCNC(=O)[C@H]([C@@H](C)O)NC(=O)[C@H](CCNC(=N)N)NC(=O)[C@H](CCNC(=N)N)NC1=O` [bGPMB, biotinylated guanidinylated polymyxin B] (Biotin-[X1][Agb]T[Agb][Dab][Agb][dF]L[Agb][Agb]T; lactam 5-C), for which the “Cytotoxicity (Cell-Titer Blue)” value in the data set on CHO-K1 cells [1] and in the data set on HEK-293 cells was “no cytotoxicity” throughout.
For the compound `CC(C)C[C@@H]1NC(=O)[C@@H](Cc2ccccc2)NC(=O)[C@H](CCN)NC(=O)[C@@H](NC(=O)[C@H](CCN)NC(=O)[C@@H](NC(=O)[C@H](CCN)NC(=O)CCCc2cn(CCOCCOCCOCCNC(=O)CCCC[C@@H]3SC[C@@H]4NC(=O)N[C@@H]43)nn2)[C@@H](C)O)CCNC(=O)[C@H]([C@@H](C)O)NC(=O)[C@H](CCN)NC(=O)[C@H](CCN)NC1=O` [bPMB, biotinylated polymyxin B] (Biotin-[X1][Dab]T[Dab][Dab][Dab][dF]L[Dab][Dab]T; lactam 5-C), the “Cytotoxicity (Cell-Titer Blue)” value with CHO-K1 cells [1] and in the data set with HEK-293 cells was “no cytotoxicity” each time.
Turning to Octaarginine [bArg8], in the data set with CHO-K1 cells [2] (CHO-K1, 1 h at 37° C., MFI, FIG. 1A), the “Cellular uptake of ST-PE-Cy5 conjugate compared with bPMB and bGPMB” value is listed as “approximately three-fold higher uptake”. Besides, the “LD50 of transporter-streptavidin-saporin conjugate” value with CHO-K1 cells [3] is on record as 3.1 nM.
Polymyxin B [PMB, reference compound]: in the data set with CHO-K1 cells [4], the “Delivery of cargo containing liposomes into wild-type CHO cells” value was “enhance delivery”. Further, in the data set with CHO-K1 cells [2], the “Uptake of ST-PE-Cy5 incubated with transporter lacking the biotin moiety” value is on record as “No enhanced uptake”.
Consider guanidinylated polymyxin B [GPMB], for which, in the data set with CHO-K1 cells [4], the “Delivery of cargo containing liposomes into wild-type CHO cells” value is “enhance delivery”. Further, in the data set on CHO-K1 cells [2], the “Uptake of ST-PE-Cy5 incubated with transporter lacking the biotin moiety” value was “No enhanced uptake”.
